Measured values published in ChEMBL document CHEMBL1201862, “PubChem BioAssay data set” (2004).
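Cells were grown in 96-well plates and exposed to each compound for 48 hours at five concentrations; endpoints were interpolated linearly between bracketing concentrations, or set to the highest concentration if not reached. GI50 = concentration required for 50% inhibition of growth.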 The source made the active and inactive calls. Rule as the data show it: active = GI50 up to about 1.1 µM and inactive = higher.

Experiments:
Experiment in all cases: NCI-60 cell line screen, 48 h
A549 = test system: A549
MDA-MB-435 = test system: MDA-MB-435
KM12 = test system: KM12
T47D = test system: T47D
NCI-H460 = test system: NCI-H460
SK-OV-3 = test system: SK-OV-3
MCF7 = test system: MCF7
OVCAR-5 = test system: OVCAR-5
OVCAR-4 = test system: OVCAR-4
K562 = test system: K562
SW-620 = test system: SW-620
SR = test system: SR
SF-539 = test system: SF-539
PC-3 = test system: PC-3
HT-29 = test system: HT-29
Malme-3M = test system: Malme-3M
HOP-92 = test system: HOP-92
TK-10 = test system: TK-10
HCT-116 = test system: HCT-116
EKVX = test system: EKVX
NCI/ADR-RES = test system: NCI/ADR-RES
HOP-62 = test system: HOP-62
LOX IMVI = test system: LOX IMVI
NCI-H23 = test system: NCI-H23
A498 = test system: A498
IGROV-1 = test system: IGROV-1
M14 = test system: M14
UACC-257 = test system: UACC-257
SNB-19 = test system: SNB-19
UACC-62 = test system: UACC-62
MOLT-4 = test system: MOLT-4
SK-MEL-2 = test system: SK-MEL-2
BT-549 = test system: BT-549
OVCAR-8 = test system: OVCAR-8
RPMI-8226 = test system: RPMI-8226
HCT-15 = test system: HCT-15
NCI-H226 = test system: NCI-H226
CAKI-1 = test system: CAKI-1
OVCAR-3 = test system: OVCAR-3
MDA-MB-231 = test system: MDA-MB-231
MDA-N = test system: MDA-N
UO-31 = test system: UO-31
Hs-578T = test system: Hs-578T
SK-MEL-5 = test system: SK-MEL-5
DU-145 = test system: DU-145
SF-295 = test system: SF-295
SK-MEL-28 = test system: SK-MEL-28
CCRF-CEM = test system: CCRF-CEM
SN12C = test system: SN12C
HCC 2998 = test system: HCC 2998
SF-268 = test system: SF-268
ACHN = test system: ACHN
786-0 = test system: 786-0
U-251 = test system: U-251
SNB-75 = test system: SNB-75
RXF 393 = test system: RXF 393
COLO 205 = test system: COLO 205

O=C(O)c1ccccc1C(=O)OCC1CCCN2CCCCC12 (configuration not stated)
GI50 (A549): > 100 µM (inactive)
GI50 (MDA-MB-435): > 100 µM (inactive)
GI50 (KM12): > 100 µM (inactive)
GI50 (T47D): > 100 µM (inactive)
GI50 (NCI-H460): > 100 µM (inactive)
GI50 (SK-OV-3): > 100 µM (inactive)
GI50 (MCF7): > 100 µM (inactive)
GI50 (OVCAR-5): > 100 µM (inactive)
GI50 (OVCAR-4): > 100 µM (inactive)
GI50 (K562): > 100 µM (inactive)
GI50 (SW-620): > 100 µM (inactive)
GI50 (SR): > 100 µM (inactive)
GI50 (SF-539): > 100 µM (inactive)
GI50 (PC-3): > 100 µM (inactive)
GI50 (HT-29): > 100 µM (inactive)
GI50 (Malme-3M): > 100 µM (inactive)
GI50 (HOP-92): > 100 µM (inactive)
GI50 (TK-10): > 100 µM (inactive)
GI50 (HCT-116): > 100 µM (inactive)
GI50 (EKVX): > 100 µM (inactive)
GI50 (NCI/ADR-RES): > 100 µM (inactive)
GI50 (HOP-62): > 100 µM (inactive)
GI50 (LOX IMVI): > 100 µM (inactive)
GI50 (NCI-H23): > 100 µM (inactive)
GI50 (A498): > 100 µM (inactive)
GI50 (IGROV-1): > 100 µM (inactive)
GI50 (M14): > 100 µM (inactive)
GI50 (UACC-257): > 100 µM (inactive)
GI50 (SNB-19): > 100 µM (inactive)
GI50 (UACC-62): > 100 µM (inactive)
GI50 (MOLT-4): > 100 µM (inactive)
GI50 (SK-MEL-2): > 100 µM (inactive)
GI50 (BT-549): > 100 µM (inactive)
GI50 (OVCAR-8): > 100 µM (inactive)
GI50 (RPMI-8226): > 100 µM (inactive)
GI50 (HCT-15): > 100 µM
GI50 (NCI-H226): > 100 µM (inactive)
GI50 (CAKI-1): > 100 µM (inactive)
GI50 (OVCAR-3): > 100 µM (inactive)
GI50 (MDA-MB-231): > 100 µM (inactive)
GI50 (MDA-N): > 100 µM (inactive)
GI50 (UO-31): > 100 µM (inactive)
GI50 (Hs-578T): > 100 µM (inactive)
GI50 (SK-MEL-5): > 100 µM (inactive)
GI50 (DU-145): > 100 µM (inactive)
GI50 (SF-295): > 100 µM (inactive)
GI50 (SK-MEL-28): > 100 µM (inactive)
GI50 (CCRF-CEM): > 100 µM (inactive)
GI50 (SN12C): > 100 µM (inactive)
GI50 (HCC 2998): > 100 µM (inactive)
GI50 (SF-268): > 100 µM (inactive)
GI50 (ACHN): > 100 µM (inactive)
GI50 (786-0): > 100 µM (inactive)
GI50 (U-251): > 100 µM (inactive)
GI50 (SNB-75): > 100 µM (inactive)
GI50 (RXF 393): > 100 µM (inactive)
GI50 (COLO 205): > 100 µM (inactive)
